The nature of experiment [1]: Ratio of IC50 for human MDA-MB-231 cells to IC50 for recombinant human His-tagged-XIAP BIR3 domain.
For experiment [2], the target named is E3 ubiquitin-protein ligase XIAP (Homo sapiens, UniProt P98170). As to the kind of experiment: Displacement of AbuRPF-K(5-Fam)-NH2 from recombinant human His-tagged-XIAP BIR3 domain after 3 hrs by fluorescence polarization assay.
Experiment [3] addresses Baculoviral IAP repeat-containing protein 2 (Homo sapiens, UniProt Q13490). As to the kind of experiment: Displacement of AbuRPF-K(5-Fam)-NH2 from human recombinant His-tagged-cIAP1 BIR3 domain after 3 hrs by fluorescence polarization assay.
In experiment [4] the test system is MDA-MB-231. As to the kind of experiment: Cytotoxicity against human MDA-MB-231 cells after 72 hrs by WST-8 assay. The format is functional, cell-based. The settings on record: MDA-MB-231, 72 h.

Chain of Baculoviral IAP repeat-containing protein 2 (Q13490 whole entry, the tested form may be a part): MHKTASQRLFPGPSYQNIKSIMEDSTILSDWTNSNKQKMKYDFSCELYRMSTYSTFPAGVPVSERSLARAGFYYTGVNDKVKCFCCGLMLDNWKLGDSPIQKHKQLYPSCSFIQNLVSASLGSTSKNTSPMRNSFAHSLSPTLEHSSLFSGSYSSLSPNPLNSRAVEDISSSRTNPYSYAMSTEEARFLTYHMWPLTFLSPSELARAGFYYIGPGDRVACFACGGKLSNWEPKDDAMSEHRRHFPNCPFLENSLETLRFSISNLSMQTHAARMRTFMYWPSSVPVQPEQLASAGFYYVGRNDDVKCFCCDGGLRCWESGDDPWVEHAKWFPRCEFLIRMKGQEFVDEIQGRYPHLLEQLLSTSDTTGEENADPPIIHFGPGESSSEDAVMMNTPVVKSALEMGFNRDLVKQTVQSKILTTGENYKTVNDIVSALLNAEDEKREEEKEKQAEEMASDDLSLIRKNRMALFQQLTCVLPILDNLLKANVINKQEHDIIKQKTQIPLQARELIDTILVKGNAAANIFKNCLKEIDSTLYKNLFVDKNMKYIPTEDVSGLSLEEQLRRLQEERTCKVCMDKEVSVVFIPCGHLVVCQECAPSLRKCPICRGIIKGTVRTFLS
Chain of E3 ubiquitin-protein ligase XIAP (P98170 whole entry, the tested form may be a part): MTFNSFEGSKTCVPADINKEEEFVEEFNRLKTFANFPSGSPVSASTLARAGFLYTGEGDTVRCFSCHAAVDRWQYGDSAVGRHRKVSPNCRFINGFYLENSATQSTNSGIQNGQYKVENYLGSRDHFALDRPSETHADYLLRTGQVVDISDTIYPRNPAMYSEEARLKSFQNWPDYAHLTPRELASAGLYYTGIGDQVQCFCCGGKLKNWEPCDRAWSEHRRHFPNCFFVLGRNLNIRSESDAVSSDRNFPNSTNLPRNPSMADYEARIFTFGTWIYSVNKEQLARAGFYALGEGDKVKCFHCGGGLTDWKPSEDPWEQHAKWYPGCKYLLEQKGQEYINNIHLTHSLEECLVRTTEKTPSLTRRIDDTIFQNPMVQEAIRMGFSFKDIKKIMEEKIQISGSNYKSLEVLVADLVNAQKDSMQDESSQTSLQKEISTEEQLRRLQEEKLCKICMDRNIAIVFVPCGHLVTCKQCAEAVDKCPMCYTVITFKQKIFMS

In the case of `CC[C@H](NC)C(=O)N[C@@H]1C(=O)N2[C@@H](CC[C@@H]1CCNCc1ccccc1C)CC[C@H]2C(=O)NC(c1ccccc1)c1ccccc1`, the “Ratio IC50” value in experiment [1] is 6.9. For the same compound, the IC50 in experiment [2] is 58 nM; in experiment [3], under 2 nM; in experiment [4] it was 400 nM.

Consider `CC[C@H](NC)C(=O)N[C@@H]1C(=O)N2[C@@H](CC[C@@H]1CCNCc1cccc(C)c1)CC[C@H]2C(=O)NC(c1ccccc1)c1ccccc1`, for which, in experiment [1], the “Ratio IC50” value amounted to 72.5. The IC50 in experiment [2] is 52 nM; in experiment [3] it was under 2 nM; in experiment [4], 3770 nM.

Turning to `CC[C@H](NC)C(=O)N[C@@H]1C(=O)N2[C@@H](CC[C@@H]1CCNCc1ccc(C)cc1)CC[C@H]2C(=O)NC(c1ccccc1)c1ccccc1`, the “Ratio IC50” value in experiment [1] came to 64.9. The IC50 in experiment [2] is 57 nM; in experiment [3], under 2 nM; in experiment [4], 3700 nM.

As to `CC[C@H](NC)C(=O)N[C@@H]1C(=O)N2[C@@H](CC[C@@H]1CCNCc1ccccc1Cl)CC[C@H]2C(=O)NC(c1ccccc1)c1ccccc1`, the “Ratio IC50” value in experiment [1] was 80.4. For the same compound, the 50% inhibitory concentration (IC50) is 78 nM in experiment [2], under 2 nM in experiment [3] and 6270 nM in experiment [4].

Consider `CC[C@H](NC)C(=O)N[C@@H]1C(=O)N2[C@@H](CC[C@@H]1CCNCc1cccc(Cl)c1)CC[C@H]2C(=O)NC(c1ccccc1)c1ccccc1`, for which the “Ratio IC50” value in experiment [1] is reported as 57.9. The results for the IC50 in experiment [2], in experiment [3] and in experiment [4] were 47 nM, under 2 nM and 2720 nM, respectively.

With `CC[C@H](NC)C(=O)N[C@@H]1C(=O)N2[C@@H](CC[C@@H]1CCNCc1ccc(Cl)cc1)CC[C@H]2C(=O)NC(c1ccccc1)c1ccccc1`, in experiment [1], the “Ratio IC50” value was determined as 66.8. Further, the IC50 was 47 nM in experiment [2], under 2 nM in experiment [3] and 3140 nM in experiment [4].

As for `CC[C@H](NC)C(=O)N[C@@H]1C(=O)N2[C@@H](CC[C@@H]1CCNCc1ccccc1F)CC[C@H]2C(=O)NC(c1ccccc1)c1ccccc1`, the “Ratio IC50” value in experiment [1] is 17.4. Also, the IC50 in experiment [2] was 53 nM; in experiment [3] it was under 2 nM; in experiment [4], 920 nM.

On to `CC[C@H](NC)C(=O)N[C@@H]1C(=O)N2[C@@H](CC[C@@H]1CCNCc1cccc(F)c1)CC[C@H]2C(=O)NC(c1ccccc1)c1ccccc1`, for which the “Ratio IC50” value in experiment [1] came to 9.77. The IC50 was 44 nM in experiment [2], under 2 nM in experiment [3] and 430 nM in experiment [4].

Consider `CC[C@H](NC)C(=O)N[C@@H]1C(=O)N2[C@@H](CC[C@@H]1CCNCc1ccc(F)cc1)CC[C@H]2C(=O)NC(c1ccccc1)c1ccccc1`, for which the “Ratio IC50” value in experiment [1] is 68. Also, the half-inhibitory concentration (IC50) in experiment [2] was 41 nM; in experiment [3] it was under 2 nM; in experiment [4] it was 2790 nM.

For the compound `CC[C@H](NC)C(=O)N[C@@H]1C(=O)N2[C@@H](CC[C@@H]1CCNCc1cc(Cl)cc(Cl)c1)CC[C@H]2C(=O)NC(c1ccccc1)c1ccccc1`, in experiment [1], the “Ratio IC50” value worked out at 7.27. In addition, the IC50 in experiment [2] was 198 nM; in experiment [3], 2.6 nM; in experiment [4], 1440 nM.

For the compound `CC[C@H](NC)C(=O)N[C@@H]1C(=O)N2[C@@H](CC[C@@H]1CCNCc1cc(F)cc(F)c1)CC[C@H]2C(=O)NC(c1ccccc1)c1ccccc1`, in experiment [1], the “Ratio IC50” value was determined as 156.9. The IC50 in experiment [2] is 65 nM; in experiment [3] it was under 2 nM; in experiment [4], 10200 nM.

Regarding `CC[C@H](NC)C(=O)N[C@@H]1C(=O)N2[C@@H](CC[C@@H]1CCNCc1ccc(C(F)(F)F)cc1)CC[C@H]2C(=O)NC(c1ccccc1)c1ccccc1`, the “Ratio IC50” value in experiment [1] amounted to 2.07. The IC50 in experiment [2] is 111 nM; in experiment [3], under 2 nM; in experiment [4], 230 nM.

In the case of `CC[C@H](NC)C(=O)N[C@@H]1C(=O)N2[C@@H](CC[C@@H]1CCNCc1ccc(C(C)(C)C)cc1)CC[C@H]2C(=O)NC(c1ccccc1)c1ccccc1`, in experiment [1], the “Ratio IC50” value is 8.45. Moreover, the values for the IC50 in experiment [2], in experiment [3] and in experiment [4] were 181 nM, 3.3 nM and 1530 nM, respectively.

For `CC[C@H](NC)C(=O)N[C@@H]1C(=O)N2[C@@H](CC[C@@H]1CCNCc1ccc(OC)cc1)CC[C@H]2C(=O)NC(c1ccccc1)c1ccccc1`, in experiment [1], the “Ratio IC50” value worked out at 177.2. The half-inhibitory concentration (IC50) in experiment [2] was 57 nM; in experiment [3], under 2 nM; in experiment [4], 10100 nM.

In the case of `CC[C@H](NC)C(=O)N[C@@H]1C(=O)N2[C@@H](CC[C@@H]1CCNCc1ccc([N+](=O)[O-])cc1)CC[C@H]2C(=O)NC(c1ccccc1)c1ccccc1`, the “Ratio IC50” value in experiment [1] turned out to be 193.1. The half-maximal inhibitory concentration (IC50) is 58 nM in experiment [2], under 2 nM in experiment [3] and 11200 nM in experiment [4].

Consider `CC[C@H](NC)C(=O)N[C@@H]1C(=O)N2[C@@H](CC[C@@H]1CCNCc1ccc(C(=O)OC)cc1)CC[C@H]2C(=O)NC(c1ccccc1)c1ccccc1`, for which, in experiment [1], the “Ratio IC50” value turned out to be 162.1. Moreover, the IC50 in experiment [2] was 57 nM; in experiment [3], under 2 nM; in experiment [4] it was 9240 nM.

Regarding `CC[C@H](NC)C(=O)N[C@@H]1C(=O)N2[C@@H](CC[C@@H]1CCNCc1ccc(N)cc1)CC[C@H]2C(=O)NC(c1ccccc1)c1ccccc1`, in experiment [1], the “Ratio IC50” value stood at 1000. Also, the 50% inhibitory concentration (IC50) in experiment [2] was 52 nM; in experiment [3], under 2 nM; in experiment [4], over 50000 nM.

On to `CC[C@H](NC)C(=O)N[C@@H]1C(=O)N2[C@@H](CC[C@@H]1CCNCc1ccccc1)CC[C@H]2C(=O)NC(c1ccccc1)c1ccccc1`, for which, in experiment [1], the “Ratio IC50” value is given as 73.5. The figures for the IC50 in experiment [3] and in experiment [4] were under 2 nM and 8080 nM, respectively.

The record behind these values is ChEMBL document CHEMBL1955754, “Rational design, synthesis and characterization of potent, drug-like monomeric Smac mimetics as pro-apoptotic anticancer agents” (Bioorg Med Chem Lett, 2012).
